Measured values published in patent US20220230723A1, “Electronically Supervised Administration of a Pharmaceutical Composition” (Celon Pharma S.A., priority 2019, published 2022).
Counter-ions that a name gives are not always drawn.

Tests used:
[1] = cited from earlier work
[2] = cited from earlier work; remark: listed apart in the source
[3] = cited from earlier work; remark: listed apart in the source
[4] = nebulized saline solution, inhalation; cited from earlier work
[5] = Literature pharmacokinetics after intravenous infusion; format: in vivo; conditions: human, plasma, 0.2 mg/kg; 0.20 mg/kg 40 minutes intravenous infusion, predicted on the basis of literature data
Protocol: Administration route with currently expected minimum level of metabolites is an intravenous one. After intravenous infusion of racemic ketamine at 0.5 mg/kg for 40 minutes, the parent drug maintains its systemic concentration about 200 ng/ml for about 40 minutes, afterwards the concentration falls down quickly with a half-period below 2 hours. Simultaneously, norketamine reaches its maximum concentration at the level of 10-20% of ketamine concentration. The percentage of area-under-curve (AUC) norketamine to ketamine is about 20-40%.

NMDA receptor = conditions: cited from earlier work
[6] = after oral administration of ketamine
[7] = after intravenous infusion of racemic ketamine

CNC1(c2ccccc2Cl)CCCCC1=O (racemic) [ketamine]
bioavailability ([1]; orally administered): 16-20% | share of patients with treatment-resistant depression responsive to treatment ([2]; human, in vivo): about ⅔ | half-period of concentration fall ([3]; after intravenous infusion 0.5 mg/kg for 40 minutes): below 2 hours | systemic concentration of parent drug ([3]; intravenous infusion 0.5 mg/kg for 40 minutes, maintained about 40 minutes): about 200 ng/ml

CN[C@]1(c2ccccc2Cl)CCCCC1=O [esketamine hydrochloride]
inhaled bioavailability [4]: reduced due to both dose-independent and dose-dependent impairment of pulmonary uptake

CN[C@]1(c2ccccc2Cl)CCCCC1=O [esketamine]
antidepressant effects ([2]; TRD patients, 40-minute i.v. infusion of 0.20 mg/kg or 0.40 mg/kg (Singh et al.)): rapid onset of robust antidepressant effects | concentration at 40 min [5]: 60 to 100 ng/mL

NC1(c2ccccc2Cl)CCCCC1=O (stereo not drawn) [norketamine]
AUC for norketamine relative to ketamine [1, 6]: exceeding 1000% | norketamine level as % of ketamine level [1, 6]: 500-1000% | activity on NMDA receptor relative to ketamine (NMDA receptor): many times less active than ketamine | maximum concentration as % of ketamine concentration [3, 7]: 10-20% | percentage of AUC norketamine to ketamine [3, 7]: 20-40%
